Source: ChEMBL document CHEMBL3046917, “Antimicrobial evaluation of 4-methylsulfanyl benzylidene/3-hydroxy benzylidene hydrazides and QSAR studies” (2012)
Converted amounts (≈) assume the structure as drawn.

Tested on: Aspergillus niger
Assay: Ratio of MFC to MIC for Aspergillus niger MTCC 8189
Format: functional

SMILES	Ratio
CSc1ccc(/C=N/NC(=O)c2ccc(C)cc2)cc1	3
CCCCCCCCCCCCCC(=O)N/N=C/c1cccc(O)c1	3
CCCCCCCCCCCCCCCCCC(=O)N/N=C/c1ccc(SC)cc1	3
CCCCCCCCCCCCCCCC(=O)N/N=C/c1cccc(O)c1	3
CCCCCCCCCCCC(=O)N/N=C/c1cccc(O)c1	3
O=C(N/N=C/c1cccc(O)c1)c1cc([N+](=O)[O-])cc([N+](=O)[O-])c1	3
COc1ccc(C(=O)N/N=C/c2ccc(SC)cc2)cc1OC	3
CSc1ccc(/C=N/NC(=O)c2cc([N+](=O)[O-])cc([N+](=O)[O-])c2)cc1	3

Tested on: Candida albicans
Assay: Ratio of MFC to MIC for Candida albicans MTCC 227
Format: functional

SMILES	Ratio
CSc1ccc(/C=N/NC(=O)c2ccc(C)cc2)cc1	3
CCCCCCCCCCCCCC(=O)N/N=C/c1cccc(O)c1	3
CCCCCCCCCCCCCCCCCC(=O)N/N=C/c1ccc(SC)cc1	3
CCCCCCCCCCCCCCCC(=O)N/N=C/c1cccc(O)c1	3
CCCCCCCCCCCC(=O)N/N=C/c1cccc(O)c1	3
O=C(N/N=C/c1cccc(O)c1)c1cc([N+](=O)[O-])cc([N+](=O)[O-])c1	3
COc1ccc(C(=O)N/N=C/c2ccc(SC)cc2)cc1OC	3
CSc1ccc(/C=N/NC(=O)c2cc([N+](=O)[O-])cc([N+](=O)[O-])c2)cc1	3

Tested on: Escherichia coli
Assay: Ratio of MBC to MIC for Escherichia coli MTCC 1652
Format: functional

SMILES	Ratio
CSc1ccc(/C=N/NC(=O)c2ccc(C)cc2)cc1	3
CCCCCCCCCCCCCC(=O)N/N=C/c1cccc(O)c1	3
CCCCCCCCCCCCCCCCCC(=O)N/N=C/c1ccc(SC)cc1	3
CCCCCCCCCCCCCCCC(=O)N/N=C/c1cccc(O)c1	3
CCCCCCCCCCCC(=O)N/N=C/c1cccc(O)c1	3
O=C(N/N=C/c1cccc(O)c1)c1cc([N+](=O)[O-])cc([N+](=O)[O-])c1	3
COc1ccc(C(=O)N/N=C/c2ccc(SC)cc2)cc1OC	3
CSc1ccc(/C=N/NC(=O)c2cc([N+](=O)[O-])cc([N+](=O)[O-])c2)cc1	3

Tested on: Bacillus subtilis
Assay: Ratio of MBC to MIC for Bacillus subtilis MTCC 2063
Format: functional

SMILES	Ratio
CSc1ccc(/C=N/NC(=O)c2ccc(C)cc2)cc1	3
CCCCCCCCCCCCCC(=O)N/N=C/c1cccc(O)c1	3
CCCCCCCCCCCCCCCCCC(=O)N/N=C/c1ccc(SC)cc1	3
CCCCCCCCCCCCCCCC(=O)N/N=C/c1cccc(O)c1	3
CCCCCCCCCCCC(=O)N/N=C/c1cccc(O)c1	3
O=C(N/N=C/c1cccc(O)c1)c1cc([N+](=O)[O-])cc([N+](=O)[O-])c1	3
COc1ccc(C(=O)N/N=C/c2ccc(SC)cc2)cc1OC	3
CSc1ccc(/C=N/NC(=O)c2cc([N+](=O)[O-])cc([N+](=O)[O-])c2)cc1	3

Tested on: Staphylococcus aureus
Assay: Ratio of MBC to MIC for Staphylococcus aureus MTCC 2901
Format: functional

SMILES	Ratio
CSc1ccc(/C=N/NC(=O)c2ccc(C)cc2)cc1	3
CCCCCCCCCCCCCC(=O)N/N=C/c1cccc(O)c1	3
CCCCCCCCCCCCCCCCCC(=O)N/N=C/c1ccc(SC)cc1	3
CCCCCCCCCCCCCCCC(=O)N/N=C/c1cccc(O)c1	3
CCCCCCCCCCCC(=O)N/N=C/c1cccc(O)c1	3
O=C(N/N=C/c1cccc(O)c1)c1cc([N+](=O)[O-])cc([N+](=O)[O-])c1	3
COc1ccc(C(=O)N/N=C/c2ccc(SC)cc2)cc1OC	3
CSc1ccc(/C=N/NC(=O)c2cc([N+](=O)[O-])cc([N+](=O)[O-])c2)cc1	3

Tested on: Aspergillus niger
Assay: Fungicidal activity against Aspergillus niger MTCC 8189
Format: functional

SMILES	MFC [µM]
CSc1ccc(/C=N/NC(=O)c2ccc(C)cc2)cc1	88 (≈ 25 µg/mL)
CCCCCCCCCCCCCC(=O)N/N=C/c1cccc(O)c1	> 144
CCCCCCCCCCCCCCCCCC(=O)N/N=C/c1ccc(SC)cc1	115 (≈ 49.8 µg/mL)
CCCCCCCCCCCCCCCC(=O)N/N=C/c1cccc(O)c1	> 133
OC(Cn1cncn1)(Cn1cncn1)c1ccc(F)cc1F [FLUCONAZOLE]	40 (≈ 12.3 µg/mL)
CCCCCCCCCCCC(=O)N/N=C/c1cccc(O)c1	78 (≈ 24.8 µg/mL)
O=C(N/N=C/c1cccc(O)c1)c1cc([N+](=O)[O-])cc([N+](=O)[O-])c1	37 (≈ 12.2 µg/mL)
COc1ccc(C(=O)N/N=C/c2ccc(SC)cc2)cc1OC	> 151
CSc1ccc(/C=N/NC(=O)c2cc([N+](=O)[O-])cc([N+](=O)[O-])c2)cc1	69 (≈ 24.9 µg/mL)

Tested on: Candida albicans
Assay: Fungicidal activity against Candida albicans MTCC 227
Format: functional

SMILES	MFC [µM]
CSc1ccc(/C=N/NC(=O)c2ccc(C)cc2)cc1	88 (≈ 25 µg/mL)
CCCCCCCCCCCCCC(=O)N/N=C/c1cccc(O)c1	> 144
CCCCCCCCCCCCCCCCCC(=O)N/N=C/c1ccc(SC)cc1	> 115
CCCCCCCCCCCCCCCC(=O)N/N=C/c1cccc(O)c1	> 133
OC(Cn1cncn1)(Cn1cncn1)c1ccc(F)cc1F [FLUCONAZOLE]	40 (≈ 12.3 µg/mL)
CCCCCCCCCCCC(=O)N/N=C/c1cccc(O)c1	157 (≈ 50 µg/mL)
O=C(N/N=C/c1cccc(O)c1)c1cc([N+](=O)[O-])cc([N+](=O)[O-])c1	> 151
COc1ccc(C(=O)N/N=C/c2ccc(SC)cc2)cc1OC	> 151
CSc1ccc(/C=N/NC(=O)c2cc([N+](=O)[O-])cc([N+](=O)[O-])c2)cc1	> 138

Tested on: Escherichia coli
Assay: Bactericidal activity against Escherichia coli MTCC 1652
Format: functional

SMILES	MBC [µM]
CSc1ccc(/C=N/NC(=O)c2ccc(C)cc2)cc1	88 (≈ 25 µg/mL)
CCCCCCCCCCCCCC(=O)N/N=C/c1cccc(O)c1	> 144
CCCCCCCCCCCCCCCCCC(=O)N/N=C/c1ccc(SC)cc1	28 (≈ 12.1 µg/mL)
CCCCCCCCCCCCCCCC(=O)N/N=C/c1cccc(O)c1	> 133
O=C(O)c1cn(C2CC2)c2cc(N3CCNCC3)c(F)cc2c1=O [CIPROFLOXACIN]	19 (≈ 6.3 µg/mL)
CCCCCCCCCCCC(=O)N/N=C/c1cccc(O)c1	157 (≈ 50 µg/mL)
O=C(N/N=C/c1cccc(O)c1)c1cc([N+](=O)[O-])cc([N+](=O)[O-])c1	> 151
COc1ccc(C(=O)N/N=C/c2ccc(SC)cc2)cc1OC	> 151
CSc1ccc(/C=N/NC(=O)c2cc([N+](=O)[O-])cc([N+](=O)[O-])c2)cc1	8 (≈ 2.88 µg/mL)

Tested on: Bacillus subtilis
Assay: Bactericidal activity against Bacillus subtilis MTCC 2063
Format: functional

SMILES	MBC [µM]
CSc1ccc(/C=N/NC(=O)c2ccc(C)cc2)cc1	44 (≈ 12.5 µg/mL)
CCCCCCCCCCCCCC(=O)N/N=C/c1cccc(O)c1	144 (≈ 49.9 µg/mL)
CCCCCCCCCCCCCCCCCC(=O)N/N=C/c1ccc(SC)cc1	> 115
CCCCCCCCCCCCCCCC(=O)N/N=C/c1cccc(O)c1	133 (≈ 49.8 µg/mL)
O=C(O)c1cn(C2CC2)c2cc(N3CCNCC3)c(F)cc2c1=O [CIPROFLOXACIN]	19 (≈ 6.3 µg/mL)
CCCCCCCCCCCC(=O)N/N=C/c1cccc(O)c1	157 (≈ 50 µg/mL)
O=C(N/N=C/c1cccc(O)c1)c1cc([N+](=O)[O-])cc([N+](=O)[O-])c1	> 151
COc1ccc(C(=O)N/N=C/c2ccc(SC)cc2)cc1OC	> 151
CSc1ccc(/C=N/NC(=O)c2cc([N+](=O)[O-])cc([N+](=O)[O-])c2)cc1	69 (≈ 24.9 µg/mL)

Tested on: Staphylococcus aureus
Assay: Bactericidal activity against Staphylococcus aureus MTCC 2901
Format: functional

SMILES	MBC [µM]
CSc1ccc(/C=N/NC(=O)c2ccc(C)cc2)cc1	> 176
CCCCCCCCCCCCCC(=O)N/N=C/c1cccc(O)c1	> 144
CCCCCCCCCCCCCCCCCC(=O)N/N=C/c1ccc(SC)cc1	> 115
CCCCCCCCCCCCCCCC(=O)N/N=C/c1cccc(O)c1	> 133
O=C(O)c1cn(C2CC2)c2cc(N3CCNCC3)c(F)cc2c1=O [CIPROFLOXACIN]	19 (≈ 6.3 µg/mL)
CCCCCCCCCCCC(=O)N/N=C/c1cccc(O)c1	> 157
O=C(N/N=C/c1cccc(O)c1)c1cc([N+](=O)[O-])cc([N+](=O)[O-])c1	> 151
COc1ccc(C(=O)N/N=C/c2ccc(SC)cc2)cc1OC	37 (≈ 12.2 µg/mL)
CSc1ccc(/C=N/NC(=O)c2cc([N+](=O)[O-])cc([N+](=O)[O-])c2)cc1	69 (≈ 24.9 µg/mL)

Tested on: Candida albicans
Assay: Fungistatic activity against Candida albicans MTCC 227 after 48 hr by tube dilution method
Format: functional

SMILES	-logMIC
CSc1ccc(/C=N/NC(=O)c2ccc(C)cc2)cc1	1.96
CCCCCCCCCCCCCC(=O)N/N=C/c1cccc(O)c1	0.54
CCCCCCCCCCCCCCCCCC(=O)N/N=C/c1ccc(SC)cc1	0.7
CCCCCCCCCCCCCCCC(=O)N/N=C/c1cccc(O)c1	0.57
OC(Cn1cncn1)(Cn1cncn1)c1ccc(F)cc1F [FLUCONAZOLE]	2.64
CCCCCCCCCCCC(=O)N/N=C/c1cccc(O)c1	1.1
O=C(N/N=C/c1cccc(O)c1)c1cc([N+](=O)[O-])cc([N+](=O)[O-])c1	1.42
COc1ccc(C(=O)N/N=C/c2ccc(SC)cc2)cc1OC	1.42
CSc1ccc(/C=N/NC(=O)c2cc([N+](=O)[O-])cc([N+](=O)[O-])c2)cc1	0.86

Tested on: Aspergillus niger
Assay: Fungistatic activity against Aspergillus niger MTCC 8189 after 7 days by tube dilution method
Format: functional

SMILES	-logMIC
CSc1ccc(/C=N/NC(=O)c2ccc(C)cc2)cc1	1.66
CCCCCCCCCCCCCC(=O)N/N=C/c1cccc(O)c1	1.2
CCCCCCCCCCCCCCCCCC(=O)N/N=C/c1ccc(SC)cc1	0.7
CCCCCCCCCCCCCCCC(=O)N/N=C/c1cccc(O)c1	1.2
OC(Cn1cncn1)(Cn1cncn1)c1ccc(F)cc1F [FLUCONAZOLE]	2.64
CCCCCCCCCCCC(=O)N/N=C/c1cccc(O)c1	1.71
O=C(N/N=C/c1cccc(O)c1)c1cc([N+](=O)[O-])cc([N+](=O)[O-])c1	2.02
COc1ccc(C(=O)N/N=C/c2ccc(SC)cc2)cc1OC	1.59
CSc1ccc(/C=N/NC(=O)c2cc([N+](=O)[O-])cc([N+](=O)[O-])c2)cc1	2.06

Tested on: Escherichia coli
Assay: Bacteriostatic activity against Escherichia coli MTCC 1652 after 24 hr by tube dilution method
Format: functional

SMILES	-logMIC
CSc1ccc(/C=N/NC(=O)c2ccc(C)cc2)cc1	1.96
CCCCCCCCCCCCCC(=O)N/N=C/c1cccc(O)c1	0.94
CCCCCCCCCCCCCCCCCC(=O)N/N=C/c1ccc(SC)cc1	1.65
CCCCCCCCCCCCCCCC(=O)N/N=C/c1cccc(O)c1	1.13
O=C(O)c1cn(C2CC2)c2cc(N3CCNCC3)c(F)cc2c1=O [CIPROFLOXACIN]	2.61
CCCCCCCCCCCC(=O)N/N=C/c1cccc(O)c1	0.98
O=C(N/N=C/c1cccc(O)c1)c1cc([N+](=O)[O-])cc([N+](=O)[O-])c1	1.42
COc1ccc(C(=O)N/N=C/c2ccc(SC)cc2)cc1OC	1.7
CSc1ccc(/C=N/NC(=O)c2cc([N+](=O)[O-])cc([N+](=O)[O-])c2)cc1	2.06

Tested on: Staphylococcus aureus
Assay: Bacteriostatic activity against Staphylococcus aureus MTCC 2901 after 24 hr by tube dilution method
Format: functional

SMILES	-logMIC
CSc1ccc(/C=N/NC(=O)c2ccc(C)cc2)cc1	1.66
CCCCCCCCCCCCCC(=O)N/N=C/c1cccc(O)c1	0.94
CCCCCCCCCCCCCCCCCC(=O)N/N=C/c1ccc(SC)cc1	0.94
CCCCCCCCCCCCCCCC(=O)N/N=C/c1cccc(O)c1	0.99
O=C(O)c1cn(C2CC2)c2cc(N3CCNCC3)c(F)cc2c1=O [CIPROFLOXACIN]	2.61
CCCCCCCCCCCC(=O)N/N=C/c1cccc(O)c1	0.98
O=C(N/N=C/c1cccc(O)c1)c1cc([N+](=O)[O-])cc([N+](=O)[O-])c1	1.12
COc1ccc(C(=O)N/N=C/c2ccc(SC)cc2)cc1OC	1.72
CSc1ccc(/C=N/NC(=O)c2cc([N+](=O)[O-])cc([N+](=O)[O-])c2)cc1	1.46

Tested on: Bacillus subtilis
Assay: Bacteriostatic activity against Bacillus subtilis MTCC 2063 after 24 hr by tube dilution method
Format: functional

SMILES	-logMIC
CSc1ccc(/C=N/NC(=O)c2ccc(C)cc2)cc1	1.96
CCCCCCCCCCCCCC(=O)N/N=C/c1cccc(O)c1	2.04
CCCCCCCCCCCCCCCCCC(=O)N/N=C/c1ccc(SC)cc1	0.64
CCCCCCCCCCCCCCCC(=O)N/N=C/c1cccc(O)c1	1.78
O=C(O)c1cn(C2CC2)c2cc(N3CCNCC3)c(F)cc2c1=O [CIPROFLOXACIN]	2.61
CCCCCCCCCCCC(=O)N/N=C/c1cccc(O)c1	0.8
O=C(N/N=C/c1cccc(O)c1)c1cc([N+](=O)[O-])cc([N+](=O)[O-])c1	1.42
COc1ccc(C(=O)N/N=C/c2ccc(SC)cc2)cc1OC	1.42
CSc1ccc(/C=N/NC(=O)c2cc([N+](=O)[O-])cc([N+](=O)[O-])c2)cc1	2.06
